≈ marks a conversion by molar mass, not a printed value. Entries after “also recorded” stand apart in the source; their conditions may differ. Like-named read-outs stand apart in the source and are kept apart here.
Experiments:
physchem = settings: organic solvent or mixture, thermodynamic from solid
[1] = tested on: VRE clinical isolate S235; test: organism not typed; type: cell-based, E. faecium
Description: (§1) QRDR mutations were determined as described in the text using primers (primer sequences can be found in Table 7).
(§2) Susceptibility testing was performed in triplicate using the microdilution broth method as outlined by the Clinical and Laboratory Standards Institute CLSI^52. MH broth was used.

[2] = tested on: VRE clinical isolate U563; test: organism not typed; type: cell-based, E. faecium
Description: as §1, §2

[3] = tested on: VRE clinical isolate C27282; test: organism not typed; type: cell-based, E. faecium
Description: as §1, §2

VRE clinical isolate U63 = test: organism not typed; type: cell-based, E. faecium
Description: as §1, §2

[4] = tested on: VRE clinical isolate C21190; test: organism not typed; type: cell-based, E. faecium
Description: as §1, §2

[5] = tested on: VRE clinical isolate U503; test: organism not typed; type: cell-based, E. faecium
Description: as §1, §2

VRE clinical isolate S34 = test: organism not typed; type: cell-based, E. faecium
Description: as §1, §2

VRE clinical isolate S51 = test: organism not typed; type: cell-based, E. faecium
Description: as §1, §2

[6] = tested on: VRE clinical isolate U464; test: organism not typed; type: cell-based, E. faecium
Description: as §1, §2

[7] = tested on: VRE clinical isolate U275; test: organism not typed; type: cell-based, E. faecium
Description: as §1, §2

[8] = tested on: VRE clinical isolate S226; test: organism not typed; type: cell-based, E. faecium
Description: as §1, §2

[9] = tested on: MRSA clinical isolate SAU.846; test: MIC, microdilution broth; type: cell-based, S. aureus; settings: Staphylococcus aureus, MRSA, read-out: MIC
Description: as §2

[10] = tested on: VRE with the S83R mutation (GyrA); test: microbe, parasite or virus in culture; type: cell-based; settings: Enterococcus
[11] = tested on: normal (i.e. non-cancerous) cell lines; settings: cited from earlier work
[12] = tested on: high level CIP resistant strains of S. aureus ATCC 29213 (S84L GyrA); test: microbe, parasite or virus in culture; type: cell-based; settings: Staphylococcus aureus, ATCC29213
A. baumannii KB304 = test: MIC, microdilution broth; type: cell-based; settings: Acinetobacter baumannii
Description: (§3) E. coli MG1655 and the ΔAcrB strain were obtained from Prof. Cari Vanderpool at UIUC.
as §2

A. baumannii KB349 = test: MIC, microdilution broth; type: cell-based; settings: Acinetobacter baumannii
Description: as §3, §2

[13] = tested on: VRE clinical isolate S557; test: organism not typed; type: cell-based, E. faecium; settings: read-out: MIC
[14] = tested on: MRSA clinical isolate SAU.3024; test: MIC, microdilution broth; type: cell-based, S. aureus; settings: Staphylococcus aureus
Description: as §2

E. coli MG1655 = test: microbe, parasite or virus in culture; type: cell-based; settings: Escherichia coli, gyrA none, parC none
Description: as §3, §2

[15] = Pharmacokinetic assessment, serum by HPLC; type: in vivo, C57BL/6 mice; settings: mouse serum
Description: FIG. 13. Pharmacokinetic analysis of DNM, DNM-2, and DNM-3. C57/BL6 mice were treated with 50 mg kg^−1 DNM, DNM-2, or DNM-3 via oral gavage. After the indicated time points (15, 30, 60, 120, 240, and 480 min), mice were sacrificed and the serum concentrations of DNM, DNM-2, and DNM-3 was determined by HPLC.
The animal studies (PK, in vivo toxicity and in vivo efficacy) were carried out in strict accordance with the recommendations in the Guide for the Care and Use of Laboratory Animals of the National Institutes of Health. […] In these studies, 10-12 week old female C57BL/6 mice purchased from Charles River were used. DNM, DNM-2, and DNM-3 were formulated as slurries at 8.3 mg mL^−1 in 25% Cremophor RH40/water (v/v). Before beginning the pharmacokinetic assessment, mice were first tested for their ability to tolerate the DNM, DNM-2, and DNM-3 at 50 mg kg^−1 (p.o.). […] At specified time points, mice were sacrificed and blood was collected, centrifuged, and the serum was frozen at −80° C. until analysis. The proteins in a 50 μL aliquot of serum were precipitated by the addition of 50 μL of acetonitrile and the sample was centrifuged to remove the proteins. Serum concentrations of DNM, DNM-2, and DNM-3 were determined by HPLC. PK parameters were determined using GraphPad Prism Version 5.00 for Windows.

human topoisomerase II = target: T1, human topoisomerase II (Homo sapiens, UniProt P11388); test: Human topoisomerase decatenation assay; type: biochemical; settings: lowest inhibiting / highest without significant inhibition
T1 construct: purchased Inspiralis
T1 sequence (P11388 whole entry): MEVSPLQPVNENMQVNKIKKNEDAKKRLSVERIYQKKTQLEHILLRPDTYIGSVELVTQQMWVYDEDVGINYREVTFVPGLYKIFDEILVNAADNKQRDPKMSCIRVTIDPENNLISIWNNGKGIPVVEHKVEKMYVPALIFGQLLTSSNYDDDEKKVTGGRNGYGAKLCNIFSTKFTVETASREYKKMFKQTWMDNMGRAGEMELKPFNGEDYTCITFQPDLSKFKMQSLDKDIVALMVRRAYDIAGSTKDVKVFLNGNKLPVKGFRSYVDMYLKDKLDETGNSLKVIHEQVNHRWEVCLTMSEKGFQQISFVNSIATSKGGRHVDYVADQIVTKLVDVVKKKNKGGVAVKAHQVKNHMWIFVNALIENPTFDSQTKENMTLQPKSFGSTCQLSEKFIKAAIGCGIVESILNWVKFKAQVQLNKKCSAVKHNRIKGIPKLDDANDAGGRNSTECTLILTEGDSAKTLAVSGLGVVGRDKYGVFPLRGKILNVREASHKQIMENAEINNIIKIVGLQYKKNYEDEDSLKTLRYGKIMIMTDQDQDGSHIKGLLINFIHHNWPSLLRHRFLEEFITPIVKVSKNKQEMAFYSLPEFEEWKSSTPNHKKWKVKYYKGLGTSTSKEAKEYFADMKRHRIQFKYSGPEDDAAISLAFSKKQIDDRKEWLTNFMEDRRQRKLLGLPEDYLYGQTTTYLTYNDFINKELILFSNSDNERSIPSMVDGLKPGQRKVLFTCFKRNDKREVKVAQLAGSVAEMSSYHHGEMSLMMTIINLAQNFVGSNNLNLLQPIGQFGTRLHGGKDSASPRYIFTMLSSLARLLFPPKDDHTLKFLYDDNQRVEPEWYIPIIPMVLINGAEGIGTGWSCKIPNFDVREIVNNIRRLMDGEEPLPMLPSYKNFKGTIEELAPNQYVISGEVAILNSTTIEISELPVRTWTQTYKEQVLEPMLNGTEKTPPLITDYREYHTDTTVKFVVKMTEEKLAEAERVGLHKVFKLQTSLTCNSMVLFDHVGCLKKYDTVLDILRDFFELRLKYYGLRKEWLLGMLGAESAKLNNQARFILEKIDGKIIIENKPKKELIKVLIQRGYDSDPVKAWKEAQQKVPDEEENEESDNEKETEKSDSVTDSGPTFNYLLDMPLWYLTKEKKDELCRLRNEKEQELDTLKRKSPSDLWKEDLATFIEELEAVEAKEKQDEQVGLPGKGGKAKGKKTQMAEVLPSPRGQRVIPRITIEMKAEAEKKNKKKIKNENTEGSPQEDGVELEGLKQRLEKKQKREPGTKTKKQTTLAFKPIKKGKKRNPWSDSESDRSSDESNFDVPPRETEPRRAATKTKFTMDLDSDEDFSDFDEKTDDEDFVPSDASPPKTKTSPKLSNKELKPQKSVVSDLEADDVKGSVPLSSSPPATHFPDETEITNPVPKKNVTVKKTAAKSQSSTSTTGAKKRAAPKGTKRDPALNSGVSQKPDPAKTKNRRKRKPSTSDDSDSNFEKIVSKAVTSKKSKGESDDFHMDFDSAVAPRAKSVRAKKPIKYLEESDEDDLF
Description: The decatenation assay was performed with the Human Topo II Decatenation Assay Kit (Inspiralis) according to the manufacturer's instructions with minor modifications. First, a master mix was made containing 2 μL 10× assay buffer (500 mM Tris.HCl, pH 7.5, 1250 mM NaCl, 100 mM MgCl2, 50 mM DTT, 1000 μg/mL albumin), 0.67 μL 30 mM ATP, 1.34 μL 0.1 ng/μL kDNA, and 14.3 μL of nuclease free water per sample is made. DMSO or 30× compound is added to a 0.5 mL Eppendorf tube (0.67 μL per tube). The master mix is then added to each tube (18.3 μL per tube). Finally, 1 U of human topoisomerase (1 μL of 1 U/μL stock) is added to each tube for a final volume of 20 μL. The tubes are then incubated at 37° C. for 30 min. Reactions are stopped by the addition of 20 μL of 24:1 chloroform:isoamyl alcohol and 20 μL of stop dye (40% sucrose, 1 mM EDTA, 100 mM TrisHCl pH 7.5, 0.5 μg/mL bromophenol blue). Samples were run on 1% agarose gels containing 0.5 μg/mL ethidium bromide for 1 h at 110V or until the dye front was approximately halfway down the gel. Gels were imaged on a Molecular Imager Gel Doc XR+ (Biorad).

FQR MRSA (NRS3) = test: Mouse sepsis model, survival; settings: 50 mg kg^−1 oral gavage once-a-day 10 days; vs CIP and vehicle, P<0.005

SMILES | solubility (physchem) | MIC [1] | MIC [2] | MIC [3] | MIC (VRE clinical isolate U63) | MIC [4] | MIC [5] | MIC (VRE clinical isolate S34) | MIC (VRE clinical isolate S51) | MIC [6] | MIC [7] | MIC [8] | MIC [12] | MIC (A. baumannii KB304) | MIC (A. baumannii KB349) | also measured
Cc1cc(=O)n(C)c2c3c4c(cc12)c(C)cc(=O)n4CO3 [DNM, deoxynybomycin] | 200 µM (≈ 56.5 µg/mL) | 0.125 µg/mL (≈ 0.443 µM) | > 1 µg/mL | > 1 µg/mL | 1 µg/mL (≈ 3.54 µM) | > 1 µg/mL | > 1 µg/mL | 1 µg/mL (≈ 3.54 µM) | 0.25 µg/mL (≈ 0.886 µM) | 1 µg/mL (≈ 3.54 µM) | 1 µg/mL (≈ 3.54 µM) | 0.25 µg/mL (≈ 0.886 µM) | 0.03 to 0.06 µg/mL (≈ 0.106 to 0.213 µM) | > 4 µg/mL | > 4 µg/mL | MIC [9]: 0.031 µg/mL (≈ 0.11 µM); MIC [10]: ≥ 1 µg/mL; toxicity to normal cell lines [11]: non-toxic
CCn1c(=O)cc(C)c2cc3c(C)cc(=O)n4c3c(c21)OC4 [DNM-2] | 4000 µM (≈ 1190 µg/mL) | 0.5 µg/mL (≈ 1.69 µM) | 2 µg/mL (≈ 6.75 µM) | 4 µg/mL (≈ 13.5 µM) | 4 µg/mL (≈ 13.5 µM) | 8 µg/mL (≈ 27 µM) | 4 µg/mL (≈ 13.5 µM) | 1 µg/mL (≈ 3.37 µM) | 0.5 µg/mL (≈ 1.69 µM) | 2 µg/mL (≈ 6.75 µM) | 2 µg/mL (≈ 6.75 µM) | 0.5 µg/mL (≈ 1.69 µM) | 0.06 to 0.12 µg/mL (≈ 0.202 to 0.405 µM) | > 24 µg/mL | > 24 µg/mL | MIC [13]: 0.25 µg/mL (≈ 0.844 µM); MIC [14]: 0.125 µg/mL (≈ 0.422 µM); MIC (E. coli MG1655): > 24 µg/mL; AUC ([15]; 50 mg kg^−1 oral dose): 44000 ng·h/mL; Cmax / peak serum concentration ([15]; 50 mg kg^−1 oral dose): 12800 ng/mL; Cmax ([15]; 50 mg kg^−1 oral dose, read-out: Cmax / peak serum concentration): 42.6 µM; AUC ([15]; 50 mg kg^−1 oral gavage): 44000 ng·h/mL; Cmax ([15]; 50 mg kg^−1 oral gavage): 12800 ng/mL; Tmax ([15]; 50 mg kg^−1 oral gavage): 1.2 h; t1/2 ([15]; 50 mg kg^−1 oral gavage): 0.9 h; concentration inhibiting human topoisomerase II (human topoisomerase II): > 30 µM; survival of mice infected with FQR MRSA (NRS3) (FQR MRSA (NRS3)): significant survival difference; also recorded: effective

Source: patent publication US9920069B2, “Compounds for treatment of fluoroquinolone-resistant bacteria” (The Board of Trustees of the University of Illinois, priority 2014, dated 2018)
